# Reference: publication PMC8012331, “Drug-induced hepatic steatosis in absence of severe mitochondrial dysfunction in HepaRG cells: proof of multiple mechanism-based toxicity” (Cell Biology and Toxicology, 2020)
# Values joined by “and” are separate entries in the source; they are usually repeats but may differ in a detail not shown here. Equal values may be shown once. Read-outs that look alike come from different tables or passages of the source.
# Tests used:
# [1] = tested on: primary human hepatocytes (PHH); assay: Neutral lipids with Nile red in primary human hepatocytes; format: cell-based; details: 4 days
# Method: Primary human hepatocytes (PHH) were purchased from Biopredic International (Saint-Grégoire, France). Cells were seeded by the supplier in coated 96-well plates at a density of 5 × 10^4 cells/well. Upon receipt, culture medium was removed and replaced by William’s E medium supplemented as previously described for HepaRG cell differentiation, except for DMSO set at 1%. After 2–3 days, cells were treated as for HepaRG cells. For HepaRG cells and PHH, cells were always maintained in incubators at 37 °C with 5% CO2 and saturating humidity.
# (§1) Cells were then incubated with PBS containing 0.1 μg/mL Nile red for 30 min and washed once. […] For each well, four pictures were taken at a magnification of × 20 and analyzed with Columbus software (PerkinElmer) for quantification. These pictures were always taken in four different areas around the center of each well, and these areas were the same from one well to another, as programmed by the Columbus software. This software was also designed to count only living cells after exclusion of dying cells harboring nuclei with abnormal shape or altered Hoechst intensity. […] Neutral lipids were then normalized per number of nuclei and expressed relative to control cells. Examples of images used for neutral lipid quantification are shown in Supplementary Fig. 2.
# [2] = tested on: mitochondrial fatty acid oxidation (mtFAO); assay: mtFAO with [U-14C]palmitic acid in HepaRG cells; format: cell-based, human; details: 4 days, vs control
# Method: (§2) Experiments were carried out on passages 9 to 16. […] DPEN was dissolved in water.
# Results were normalized to total protein content determined using the Pierce BCA assay kit from Thermo Fischer Scientific (Waltham, MA). Results were expressed in comparison to control cells.
# [3] = treated patients, ref Schulz M et al., Crit Care 2012 ;16(4):R136, cited from earlier work
# [4] = Maximum plasma concentration (Cmax) in patients; format: in vivo, human; details: worked out from cited Cmax in patients
# HepaRG cells [5] = assay: Cellular ATP level (CellTiter-Glo) in HepaRG cells; format: cell-based, human; details: 4 days, vs controls
# Method: Cellular ATP level was measured using the CellTiter-Glo® Luminescent Cell Viability assay purchased from Promega (Charbonnières, France), according to the manufacturer’s instructions. Briefly, control and treated HepaRG cells were first washed with warm PBS and kept for 30 min at room temperature in phenol red-free William’s E medium. Cells were next incubated with the CellTiter-Glo® reagent for 10 min at room temperature. Cells were then transferred in opaque-walled multiwell plates and the luminescent signal was quantified using a POLARstar Omega microplate reader (BMG Labtech, Ortenberg, Germany). Results were expressed in comparison to control cells.
# HepaRG cells [6] = assay: Neutral lipids with Nile red in HepaRG cells; details: 4 days
# Method: (§3) Briefly, HepaRG cells were seeded in 96-well plates at a density of 2.6 × 10^4 cells/cm^2 and were first incubated in William’s E medium supplemented with 10% FBS (50% FBS from Eurobio and 50% FBS from GE Healthcare), 100 U/mL penicillin, 100 μg/mL streptomycin, 2 mM glutamine, 5 μg/mL insulin, and 50 μM hydrocortisone hemisuccinate. […] During this 1-month period, the culture medium was renewed three times a week. […] HepaRG cells were next cultured in the same FBS/DMSO conditions and incubated for 4 days with each drug at different concentrations. Culture medium was renewed every day and all investigations were performed after 96 h (i.e., 24 h after the fourth treatment). These investigations were mostly performed in 96-well plates except for western blot analysis, for which 6-well plates were used. Experiments were carried out on passages 9 to 16. All drugs (except DPEN), etomoxir, lomitapide, tunicamycin, thapsigargin, and TUDCA were dissolved in DMSO. DPEN was dissolved in water.
# as §1
# [7] = patients, ref given per drug, cited from earlier work; for Cmax: read-out: Maximum plasma concentration (Cmax) in patients
# [8] = tested on: de novo lipogenesis (DNL); assay: DNL from [2-14C]acetic acid in HepaRG cells; format: cell-based, human; details: 4 days, vs control
# Method: as §2
# DNL was assessed by measuring newly synthesized radiolabeled lipids from [2-^14C]acetic acid, using a protocol adapted from Byrne et al. ([2014]). Briefly, culture medium was removed and cells were washed with warm PBS. Next, cells were incubated for 3 h with phenol red-free William’s E medium containing 1% fatty acid-free BSA, [2-^14C]acetic acid (1850 Bq per well, corresponding to 19.4 pM) and 50 μM cold acetic acid. Medium was then gently removed and cells were washed with warm PBS before adding a mix of hexane/isopropanol (3:2; v/v). Cell culture plates were sealed and incubated for 1 h at room temperature for lipid extraction. After transfer of the plate content in 200-μL microtubes, hexane and PBS were added to have a hexane/isopropanol/PBS ratio of 6:2:3 (v/v/v). Microtubes were then centrifuged at 1000×g for 5 min and radiolabeled lipids were counted in the upper phase with a Tri-Carb 4910TR liquid scintillation counter (PerkinElmer). Results were normalized to total protein content and expressed in comparison to control cells.
# ERN1 (IRE1α) = assay: RT-qPCR ERN1 mRNA in HepaRG cells; format: cell-based, human; details: 4 days, vs control
# Method: Total RNA was extracted with the Nucleospin RNA isolation system purchased from Macherey-Nagel (Düren, Germany), which included a DNase treatment step. Quantification of isolated RNAs was assessed using a Nanodrop 1000 (Thermo Fisher Scientific, Waltham, MA). RNAs were reverse-transcribed into cDNAs using the High-Capacity cDNA Reverse Transcription Kit purchased from Applied Biosystems (Woolston, UK). Gene expression was assessed by real-time quantitative PCR analysis (RT-qPCR) using SYBR Green PCR Master Mix (Applied Biosystems) and a 384-well QuantStudio™ 7 Flex Real-Time PCR System (Thermo Fisher Scientific). Sequences of the primers used to measure gene expression are presented in Supplementary Table 3. Expression of GAPDH was chosen as reference and the 2^−ΔΔCt calculation method was used to express the relative expression of each selected gene.
# apoB secretion = assay: apoB level in culture medium (ELISA), HepaRG cells; format: cell-based, human; details: 4 days, culture medium, vs control
# Method: as §2
# Twenty-four hours after the last treatment, cell supernatants were removed and stored at − 80 °C until use for apolipoprotein measurement. ApoB level was measured using the Human Apolipoprotein B ELISA^pro kit from Mabtech (Nacka Strand, Sweden), according to the manufacturer’s instructions. Briefly, 50 μL of samples were diluted 2× in Apo ELISA buffer before a 2-h incubation in the precoated strip plates provided in the kit. The plates were washed and incubated 1 h with the biotinylated monoclonal anti-human apoB (LDL-11-biotin) antibody. The plates were then washed and incubated 1 h with a streptavidin–horseradish peroxidase conjugated antibody. After another washing, 3,3′,5,5′-tetramethylbenzidine (TMB) was used as substrate for 15 min before adding a stop solution. Absorbance at 450 nm was then measured using a POLARstar Omega microplate reader (BMG Labtech, Ortenberg). ApoB level was calculated utilizing a four-parameter standard curve, and normalized to the total cellular protein content and expressed in comparison to control cells.
# apoC3 secretion = assay: apoC3 level in culture medium (HTRF), HepaRG cells; format: cell-based, human; details: 4 days, culture medium, vs control
# Method: as §3
# Apolipoprotein C3 (apoC3) level was measured using the Human Apolipoprotein C3 kit from Cisbio Bioassays (Codolet, France), according to the manufacturer’s instructions. Briefly, 10 μL of supernatants was incubated with two different specific anti-human apoC3 antibodies, one donor and one acceptor. The detection principle of apoC3 is based on HTRF® (Homogeneous Time Resolved Fluorescence), a time-resolved FRET (Förster Resonance Energy Transfer) technology. After 2 h of incubation, light emission was measured with the Infinite F Nano+ microplate reader (Tecan, Männedorf, Switzerland). ApoC3 level was calculated utilizing standard curve, based on the ratio of A665 nm/A615 nm, and normalized to the total cellular protein content. Results were expressed in comparison to control cells.
# [9] = selected concentrations (ATP loss < 30%, not above 100 × Cmax), vs control
SMILES,Concentration corresponding to 100xCmax [4] [µM],Effect on mtFAO [2],Loss of cellular ATP relative to the maximum concentration selected for the study (HepaRG cells [5]),Accumulation of neutral lipids (steatosis) (HepaRG cells [6]; [9]),Maximum plasma concentration (Cmax) in patients [7] [ng/mL],Cmax [7] [µM],Effect on DNL [8],Effect on apoB secretion (apoB secretion),Effect on apoC3 secretion (apoC3 secretion),also measured
"Oc1ncnc2[nH]ncc12 [ALLO, allopurinol]",1500,significantly enhance mtFAO,"750 µM (loss of cellular ATP above 30% of the controls for higher concentrations, as shown in Supp. fig 1)",significant accumulation of neutral lipids,≤ 2050,≤ 15,curb this metabolic pathway,reduced the secretion,reduced the secretion,Steatosis in PHH batches (six batches tested) [1]: accumulation of neutral lipids in five PHH batches; Therapeutic blood (or plasma) concentration in patients ([3]; listed as Allopurinol (ALLO)): 2 - 19 mg/L and 15 - 140 µM; ERN1 (IRE1α) mRNA level (ERN1 (IRE1α)): enhanced IRE1α mRNA level
"CC(C)(S)[C@@H](N)C(=O)O [DPEN, D-penicillamine]",2500,,"2500 µM (slight loss of cellular ATP for this concentration, as shown in Supp. fig 1)",did not induce steatosis,≤ 3760,≤ 25,,,,"Therapeutic blood (or plasma) concentration in patients ([3]; listed as D-penicillamine (DPEN)): 1.7 - 5.6 mg/L and 11.4 - 37.6 µM; Accumulation of neutral lipids (steatosis) (HepaRG cells [6]; concentrations above 100 × Cmax (100 μM NIF, 5000 μM DPEN)): significant accumulation of neutral lipids"
"Cn1cc[nH]c1=S [METHI, methimazole]",,,,did not induce steatosis,≤ 1500,≤ 13,,,,Therapeutic blood (or plasma) concentration in patients ([3]; listed as Methimazole (METHI)): 0.5 - 2.5 mg/L and 4.4 - 22 µM
"COC(=O)C1=C(C)NC(C)=C(C(=O)OC)C1c1ccccc1[N+](=O)[O-] [NIF, nifedipine]",,,,,,,,,,Therapeutic blood (or plasma) concentration in patients ([3]; listed as Nifedipine (NIF)): 0.025 - 0.15 mg/L and 0.07 - 0.43 µM
"CCOC(=O)[C@@]1(CCCCCCOc2ccc(Cl)cc2)CO1 [etomoxir, (+)-etomoxir]",,blocked,,,,,,,,
O=C(NC1CCN(CCCCC2(C(=O)NCC(F)(F)F)c3ccccc3-c3ccccc32)CC1)c1ccccc1-c1ccc(C(F)(F)F)cc1 [lomitapide],,,,,,,,inhibited,,

# Continued, in another order:
Concentration corresponding to 100xCmax [4] [µM],SMILES,Effect on mtFAO [2],Loss of cellular ATP relative to the maximum concentration selected for the study (HepaRG cells [5]),Accumulation of neutral lipids (steatosis) (HepaRG cells [6]; [9]),Maximum plasma concentration (Cmax) in patients [7] [ng/mL],Cmax [7] [µM],Effect on DNL [8],Effect on apoB secretion (apoB secretion),Effect on apoC3 secretion (apoC3 secretion),also measured
42000,"O=c1[nH]cc(F)c(=O)[nH]1 [5FU, 5-fluorouracil]",significantly enhance mtFAO,"100 µM (loss of cellular ATP above 30% of the controls for higher concentrations, as shown in Supp. fig 1)",significant accumulation of neutral lipids,≤ 55000,≤ 420,curb this metabolic pathway,reduced the secretion,reduced the secretion,Steatosis in PHH batches (six batches tested) [1]: induced steatosis in only one PHH batch; Therapeutic blood (or plasma) concentration in patients ([3]; listed as 5-Fluorouracil (5FU)): 0.05 - 0.3 mg/L and 0.38 - 2.3 µM; ERN1 (IRE1α) mRNA level (ERN1 (IRE1α)): enhanced IRE1α mRNA level
1300,"CC(C)(C)NC(=O)[C@@H]1CN(Cc2cccnc2)CCN1C[C@@H](O)C[C@@H](Cc1ccccc1)C(=O)N[C@H]1c2ccccc2C[C@H]1O [INDI, indinavir]",,,significant accumulation of neutral lipids,≤ 8000,≤ 13,curb this metabolic pathway,reduced the secretion,reduced the secretion,
